According to publication PMC12028158, “Synthesis and In Vitro Evaluation of the Anticancer Effect of Novel Phosphonium Vindoline Derivatives” (International Journal of Molecular Sciences, 2025):
Read-outs that look alike come from different tables or passages of the source.

What was measured:
Format in all cases: cell-based
UACC-257 [1] = test: NCI60 five-dose screen; details: Homo sapiens, read-out: GI50
HCT-15 [2] = test: NCI60 five-dose screen; details: Homo sapiens; HCT-15, Colon Cancer, five-dose; read-out: GI50
CCRF-CEM = test: NCI60 one-dose screen; details: Homo sapiens, 10 μM, one-dose, read-out: Growth percent
NCI-H522 [3] = test: NCI60 five-dose screen; details: Homo sapiens; NCI-H522, Non-small Cell Lung Cancer, five-dose; read-out: GI50
OVCAR-4 = test: NCI60 one-dose screen; details: Homo sapiens; OVCAR-4, 10 μM, one-dose; read-out: Growth percent
TK-10 = test: NCI60 one-dose screen; details: Homo sapiens; TK-10, 10 μM, one-dose; read-out: Growth percent
NCI-H460 = test: NCI60 one-dose screen; details: Homo sapiens; NCI-H460, 10 μM, one-dose; read-out: Growth percent
Ovarian Cancer panel = test: NCI60 five-dose screen, panel mean; details: Homo sapiens; mean over Ovarian Cancer panel; read-out: Mean GI50
RPMI-8226 = test: NCI60 five-dose screen; details: Homo sapiens; RPMI-8226, Leukemia, five-dose; read-out: GI50
SK-MEL-28 = test: NCI60 five-dose screen; details: Homo sapiens; SK-MEL-28, Melanoma, five-dose; read-out: GI50
Colon Cancer panel = test: NCI60 five-dose screen, panel mean; details: Homo sapiens; mean over Colon Cancer panel; read-out: Mean GI50
SK-MEL-5 [4] = test: NCI60 five-dose screen; details: Homo sapiens; SK-MEL-5, Melanoma, five-dose; read-out: GI50
MCF7 [5] = test: NCI60 one-dose screen; details: Homo sapiens; MCF7, 10 μM, one-dose; read-out: Growth percent
IGROV1 [6] = test: NCI60 five-dose screen; details: Homo sapiens, IGROV-1; IGROV1, Ovarian Cancer, five-dose; read-out: GI50
SNB-75 = test: NCI60 one-dose screen; details: Homo sapiens; SNB-75, 10 μM, one-dose; read-out: Growth percent
KM12 = test: NCI60 five-dose screen; details: Homo sapiens, read-out: GI50
HCC-2998 = test: NCI60 five-dose screen; details: Homo sapiens; HCC-2998, Colon Cancer, five-dose; read-out: GI50
MCF7 [7] = test: NCI60 five-dose screen; details: Homo sapiens, read-out: GI50
LOX IMVI [8] = test: NCI60 five-dose screen; details: Homo sapiens, Melanoma, five-dose, read-out: GI50
SNB-19 = test: NCI60 one-dose screen; details: Homo sapiens; SNB-19, 10 μM, one-dose; read-out: Growth percent
Leukemia panel = test: NCI60 five-dose screen, panel mean; details: Homo sapiens; mean over Leukemia panel; read-out: Mean GI50
MDA-MB-468 = test: NCI60 five-dose screen; details: Homo sapiens, read-out: GI50
UACC-257 [9] = test: NCI60 one-dose screen; details: Homo sapiens; UACC-257, 10 μM, one-dose; read-out: Growth percent
A549/ATCC = test: NCI60 one-dose screen; details: Homo sapiens; A549/ATCC, 10 μM, one-dose; read-out: Growth percent
SK-MEL-5 [10] = test: NCI60 one-dose screen; details: Homo sapiens; SK-MEL-5, 10 μM, one-dose; read-out: Growth percent
786-0 = test: NCI60 five-dose screen; details: Homo sapiens; 786-0, Renal Cancer, five-dose; read-out: GI50
SF-539 = test: NCI60 five-dose screen; details: Homo sapiens; SF-539, CNS Cancer, five-dose; read-out: GI50
NCI-H23 = test: NCI60 one-dose screen; details: Homo sapiens; NCI-H23, 10 μM, one-dose; read-out: Growth percent
Melanoma panel = test: NCI60 five-dose screen, panel mean; details: Homo sapiens; mean over Melanoma panel; read-out: Mean GI50
CAKI-1 [11] = test: NCI60 one-dose screen; details: Homo sapiens; CAKI-1, 10 μM, one-dose; read-out: Growth percent
NCI-H322M = test: NCI60 one-dose screen; details: Homo sapiens, 10 μM, one-dose, read-out: Growth percent
MOLT-4 = test: NCI60 five-dose screen; details: Homo sapiens; MOLT-4, Leukemia, five-dose; read-out: GI50
HCT-15 [12] = test: NCI60 one-dose screen; details: Homo sapiens; HCT-15, 10 μM, one-dose; read-out: Growth percent
NCI-H522 [13] = test: NCI60 one-dose screen; details: Homo sapiens; NCI-H522, 10 μM, one-dose; read-out: Growth percent
Breast Cancer panel = test: NCI60 five-dose screen, panel mean; details: Homo sapiens; mean over Breast Cancer panel; read-out: Mean GI50
CAKI-1 [14] = test: NCI60 five-dose screen; details: Homo sapiens; CAKI-1, Renal Cancer, five-dose; read-out: GI50
IGROV1 [15] = test: NCI60 one-dose screen; details: Homo sapiens, IGROV-1; IGROV1, 10 μM, one-dose; read-out: Growth percent
OVCAR-3 = test: NCI60 one-dose screen; details: Homo sapiens; OVCAR-3, 10 μM, one-dose; read-out: Growth percent
HCT-116 = test: NCI60 five-dose screen; details: Homo sapiens; HCT-116, Colon Cancer, five-dose; read-out: GI50
M14 = test: NCI60 one-dose screen; details: Homo sapiens; M14, 10 μM, one-dose; read-out: Growth percent
LOX IMVI [16] = test: NCI60 one-dose screen; details: Homo sapiens, 10 μM, one-dose, read-out: Growth percent
[17] = system: Non-small Cell Lung Cancer panel; test: NCI60 five-dose screen, panel mean; details: Homo sapiens; mean over Non-small Cell Lung Cancer panel; read-out: Mean GI50
MALME-3M = test: NCI60 five-dose screen; details: Homo sapiens; MALME-3M, Melanoma, five-dose; read-out: GI50

With `CC[C@]12C=CCN3CC[C@@]4(c5ccc(OC)cc5N(C)[C@H]4[C@@](O)(C(=O)OC)[C@@H]1OC(=O)CCC[P+](c1cc(C)c(OC)c(C)c1)(c1cc(C)c(OC)c(C)c1)c1cc(C)c(OC)c(C)c1)[C@@H]32` [9e] the GI50 (UACC-257 [1]; UACC-257, UACC-257, Melanoma, five-dose) was 38 nM, the GI50 (UACC-257 [1]; UACC-257, melanoma UACC-257, text) was less than 100 nM and the GI50 (HCT-15 [2]) was 760 nM. For the same compound, the activity at 10 µM (CCRF-CEM) was -95.7%, the GI50 (NCI-H522 [3]) was 198 nM and the activity at 10 µM (OVCAR-4) was -98.7%. It also gave an activity at 10 µM (TK-10) of -99.3%, an activity at 10 µM (NCI-H460) of -89.5% and a GI50 (Ovarian Cancer panel) of 940 nM. The GI50 (RPMI-8226) was 20 nM, the GI50 (SK-MEL-28) was 272 nM and the GI50 (Colon Cancer panel) was 240 nM. The GI50 (SK-MEL-5 [4]) was 138 nM, the activity at 10 µM (MCF7 [5]) was -94.5% and the GI50 (IGROV1 [6]) was 193 nM. It also gave an activity at 10 µM (SNB-75) of -98.9%, a GI50 (KM12; KM12, KM12, Colon Cancer, five-dose) of 47 nM and a GI50 (KM12; KM12, colon cancer KM12, text) of less than 100 nM. The GI50 (HCC-2998) was 195 nM, the GI50 (MCF7 [7]; MCF7, MCF7, Breast Cancer, five-dose) was 44 nM and the GI50 (MCF7 [7]; MCF7, breast cancer MCF7, text) was less than 100 nM. The GI50 (LOX IMVI [8]) was 145 nM, the activity at 10 µM (SNB-19) was -97.1% and the GI50 (Leukemia panel) was 110 nM. The GI50 (MDA-MB-468; MDA-MB-468, MDA-MB-468, Breast Cancer, five-dose) was 27 nM, the GI50 (MDA-MB-468; MDA-MB-468, breast cancer MDA-MB-468, text) was less than 100 nM and the activity at 10 µM (UACC-257 [9]) was -99.3%. It also gave an activity at 10 µM (A549/ATCC) of -92.9%, an activity at 10 µM (SK-MEL-5 [10]) of -97.5% and a GI50 (786-0) of 239 nM. It also gave a GI50 (SF-539) of 307 nM, an activity at 10 µM (NCI-H23) of -98.1% and a GI50 (Melanoma panel) of 180 nM. It also gave an activity at 10 µM (CAKI-1 [11]) of -97%, an activity at 10 µM (NCI-H322M) of -98.1% and a GI50 (MOLT-4) of 164 nM. It also gave an activity at 10 µM (HCT-15 [12]) of -93.9%, an activity at 10 µM (NCI-H522 [13]) of -98.4% and a GI50 (Breast Cancer panel) of 140 nM. For the same compound, the GI50 (CAKI-1 [14]) was 313 nM, the activity at 10 µM (IGROV1 [15]) was -99% and the activity at 10 µM (OVCAR-3) was -99%. For the same compound, the GI50 (HCT-116) was 223 nM, the activity at 10 µM (M14) was -97.3% and the activity at 10 µM (LOX IMVI [16]) was -96.8%. It also gave a GI50 [17] of 230 nM and a GI50 (MALME-3M) of 288 nM.
